Experimental data: patent US20240050385A1, “METHODS OF TREATING LEPTOMENINGEAL METASTASIS” (MEMORIAL SLOAN-KETTERING CANCER CENTER, priority 2020, published 2024)
“Also recorded” adds a separate entry of the source. Where a name gives a salt, the structure may show the parent alone.

Experiments:
PC9-LeptoM cells = experiment: In vivo leptomeningeal metastasis assay, PC9-LeptoM model, intracisternal chelator treatment; parameters: species or system mouse; conditions: for Median Survival: every 3 days; for [Fe]: total iron in CSF
Excerpt: (§1) FIG. 16A-16L. Iron chelator treatment reduces CSF iron. (A) Experimental scheme. Mice were inoculated with 2×10^3 cells intrathecally on day 0. Treatment with either vehicle, DFO, or D-pen was commenced on either day 1 or day 7 and continued every third day for a total of 7 doses. (B) Chelators delivered intrathecally. DFO, Deferoxamine. D-Pen, D-Penicillamine. (C-F) Intracellular iron (C and E) and viability (D and F) of PC9-LeptoM cells and MDA231-LeptoM cells after treatment with chelators in different concentrations (0 μM, 1 μM, 10 μM and 100 μM). n=3-4 per group in each of two independent experiments. * indicates p<0.05, ** indicates p<0.01, ***indicates p<0.001, **** indicates p<0.0001 (unpaired t test). Data represent mean±SEM. (G) Growth of PC9-LeptoM tumor after treatment indicated in (A). Left: in vivo BLI imaging in day 28 post-inoculation. n=8-10 per group in each of two independent experiments. Right: Representative BLI images. **** indicates p<0.0001. Data represent mean±SEM. (H) Kaplan-Meier survival curve from (C) and (E). p<0.0001. (I and J) Total iron concentration measured in CSF samples of mice with treatment of chelators in PC9-LeptoM Model (I) in MDA231-LeptoM model (J). NS=not significant, * indicates p<0.05, ** indicates p<0.01 (unpaired t test). Data represent mean±SEM. (K and L) Immune cell composition in CSF of LLC-LeptoM model with the treatment of vehicle, DFO, or D-pen at day 10. n=6 per group. NS=not significant, * indicates p<0.05, ** indicates p<0.01 (unpaired t test). Data represent mean±SEM.
In vivo leptomeningeal metastasis assays. To model leptomeningeal metastasis with a known consistent disease burden, 2×10^3 PC9, 2×10^3 MDA231, or 1×10^3 LLC Parental or LeptoM cells suspended in 10 μl PBS were injected into the cisterna magna of anesthetized mice. This procedure was tolerated well by the mice. Tumor progression was monitored by bioluminescence imaging (BLI) every 7 days after tumor cell inoculation, and mouse condition was monitored daily. When the tumor cells encompassed the entire CNS, or when neurological impairment became apparent, CSF was collected as described above, and mice were euthanized. Brains and spinal cord were collected in tissue fixative and embedded for preservation or histological and morphometric analysis. The role of LCN2 in cancer progression at multiple metastatic sites was also assessed. Tumor burden was monitored and quantified non-invasively after tumor cell inoculation either by BLI signal using the IVIS Spectrum Xenogen (Caliper Life Sciences) machine or with calibrated digital caliper. To track cancer cell growth after hematogenous dissemination, 5×10^4 PC9-LeptoM cells (shCtl, shLCN2-1 and shLCN2-2) suspended in 50 μL PBS were injected into the left heart ventricle. Tumor burden was monitored every 3 days with BLI. To measure cancer cell growth in the lungs, 2.5×10^4 PC9-LeptoM cells (diluted 1:1 in Growth factor-reduced Matrigel, #354230) were injected into the left lung through the rib cage. Tumor burden was monitored every 3 days with BLI. To assess cancer cell growth after subcutaneous inoculation, 1×10^6 PC9-LeptoM cells (diluted 1:1 in growth factor-reduced Matrigel) were injected under the flank skin of the mouse, and tumor burden was monitored every 3 days with calibrated digital caliper. To introduce cells into the mammary fat pad, 5×10^4 MDA-231-LeptoM cells (diluted 1:1 in growth factor-reduced Matrigel) were injected into the fourth inguinal mammary fat pad; tumor burden was measured every 3 days with calibrated digital caliper. To test a hypoxic environment other than the leptomeninges, 5×10^6 cells, diluted in 200 uL PBS, were injected intraperitoneally. Tumor burden was monitored 7 days after inoculation by BLI. Exact numbers for each experimental series are included in the relevant Figure legends.
Mouse CSF collection and Intrathecal drug administration. […]

LLC-LeptoM model = experiment: Immune cell composition in CSF of LLC-LeptoM model (flow cytometry); assay type: in vivo, mouse; conditions: day 10, in words
Excerpt: as §1
Flow cytometry analysis and sorting. For cytometric bead assay, CSF from control mice or mice bearing LLC LeptoM cells was collected on day 14 as described above. Levels of cytokines were measured using LEGENDplex Mouse Inflammation Panel (13-plex; 740446, Biolegend) as recommended by manufacturer in technical duplicates. Data was processed using LEGENDPlex Software (Biolegend). For flow cytometric analysis of CSF and meningeal cells, mice were transcardially perfused though left ventricle with saline using standard procedures (16). Then, CSF was collected by cisternal tap as described above. Next, cranial vault was removed, brain was collected and basilar meninges were washed with PBS. Surface of the brain and ventricular spaces were washed with PBS. CSF, cavity and brain washouts were pooled and processed for staining. For analysis of peripheral leukocytes, blood was collected from deeply anesthesized mice using cardiac puncture. Spleen was collected from perfused animals, minced, and mechanically dissociated using GentleMACS (Miltenyi Biotec). […] Phagocytic activity and respiratory burst were analyzed using E. coli Phagocytosis Assay Kit (FITC conjugate, Cayman Chemicals, 601370) and CellRox Green Flow Cytometry (Thermo Fisher, C10492), as recommended. […]

SMILES | Median Survival (PC9-LeptoM cells; PC9-LeptoM model, intracisternal, start day not given) [days] | [Fe] (PC9-LeptoM cells; PC9-LeptoM model, start day not given) [µM] | number (percentage) of CSF macrophages (LLC-LeptoM model) | numbers of neutrophils, T cells and monocytes in CSF (LLC-LeptoM model) | iron concentration in the CSF compared to control mice (PC9-LeptoM cells; PC9-LeptoM model, day 28, in words) | [Fe] (PC9-LeptoM cells; PC9-LeptoM model, late (day 7)) [µM] | Median Survival (PC9-LeptoM cells; PC9-LeptoM model, treatment begun late (day 7)) [days] | dissemination of cancer cells over the spinal cord (PC9-LeptoM cells; PC9 mouse model, both early and late treatment groups, in words) | survival compared with vehicle control (PC9-LeptoM cells; PC9 mouse model, in words)
CC(C)(S)[C@@H](N)C(=O)O [D-Pen, D-penicillamine] | 31.5 ± 3.5 | 15.13 ± 4.21 | slightly reduced | not affected | – | – | – | – | –
CC(=O)N(O)CCCCCNC(=O)CCC(=O)N(O)CCCCCNC(=O)CCC(=O)N(O)CCCCCN [DFO, Deferoxamine mesylate] | – | – | slightly reduced; also recorded: only mildly reduced | not affected | profoundly decreased; also recorded: reduced CSF iron concentration to that of non-LeptoM control mice | 4.74 ± 0.38 | 40 ± 5 | impaired dissemination | conferred a survival benefit; also recorded: significant survival benefit
